Measurements as given in patent publication US20260317340A1, “COMPOUNDS, COMPOSITIONS, AND METHODS OF TREATING DISORDERS” (Chengdu Anticancer Bioscience, Ltd., priority 2023, published 2026).
Read-outs that look alike come from different tables or passages of the source.

Tests used:
RPE-Neo or RPE-MYC cells = experiment: MTT assay of cellular proliferation (proliferative arrest); type: cell-based; details: read-out: Min. Effective conc. for Proliferative arrest (>50%)
[1] = test system: RPE-Neo or RPE-MYC or RPE-MYC expressing an EGFP-Histone 2B fusion protein; experiment: Phenotypic screening assay: arrest in mitosis, change in DNA content (polyploidy), cell death; type: cell-based; details: 20 nM to 20 μM, 24, 48 or 72 hours
Method in brief: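 RPE-Neo, RPE-MYC or RPE-MYC EGFP-H2B cells plated 18-24 h before treatment with compounds at 20 nM to 20 μM. Mitotic arrest or DNA-content change scored by automated imaging at 24, 48 or 72 h; proliferation by MTT. Values binned into A–D ranges.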

[2] = read-out: Min. Effective conc. for Along with Cell Death
[3] = ≥5%, read-out: Min. Effective conc. for Mitotic Arrest (≥5%)
[4] = ≥5%, read-out: Min. Effective conc. for Polyploidy (≥5%)

Compound	minimal effective concentration (RPE-Neo or RPE-MYC cells)	minimal effective concentration [1, 2]	minimal effective concentration [1, 3]	minimal effective concentration [1, 4]
COc1ccc(CN2C(=O)CC(c3ncc(C)o3)=Cc3ccc(-c4cnn(C(C)C(C)O)c4)cc32)cc1 (stereo not shown) [Compound 83, 8-(1-(3-Hydroxybutan-2-yl)-1H-pyrazol-4-yl)-1-(4-methoxybenzyl)-4-(5-methyloxazol-2-yl)-1,3-dihydro-2H-benzo[b]azepin-2-one]	0.001 to 1 µM	0.001 to 1 µM	0.001 to 1 µM	0.001 to 1 µM
COc1ccc(CN2C(=O)CC(c3ncc(C)o3)=Cc3ccc(-c4cnn(C5CCOC5)c4)cc32)cc1 (stereo not shown) [Compound 48, 1-(4-methoxybenzyl)-4-(5-methyloxazol-2-yl)-8-(1-(tetrahydrofuran-3-yl)-1H-pyrazol-4-yl)-1,3-dihydro-2H-benzo[b]azepin-2-one]	0.001 to 1 µM	0.001 to 1 µM	0.001 to 1 µM	0.001 to 1 µM
COc1ccc(CN2C(=O)CC(c3ncc(C)o3)=Cc3ccc(-c4cnn(CC(=O)O)c4)cc32)cc1 [Compound 69, 2-(4-(1-(4-Methoxybenzyl)-4-(5-methyloxazol-2-yl)-2-oxo-2,3-dihydro-1H-benzo[b]azepin-8-yl)-1H-pyrazol-1-yl)acetic acid]	1 to 10 µM	1 to 10 µM	1 to 10 µM	1 to 10 µM
CNC(=O)c1cc(-c2ccc3c(c2)N(Cc2ccc(OC)cc2)C(=O)CC(c2ncc(C)o2)=C3)ccn1 [Compound 60, 4-(1-(4-Methoxybenzyl)-4-(5-methyloxazol-2-yl)-2-oxo-2,3-dihydro-1H-benzo[b]azepin-8-yl)-N-methylpicolinamide]	0.001 to 1 µM	0.001 to 1 µM	0.001 to 1 µM	0.001 to 1 µM
COc1ccc(CN2C(=O)CC(c3ncc(C)o3)=Cc3ccc(-c4cncn4C)cc32)cc1 [Compound 32, 1-(4-methoxybenzyl)-8-(1-methyl-1H-imidazol-5-yl)-4-(5-methyloxazol-2-yl)-1,3-dihydro-2H-benzo[b]azepin-2-one]	0.001 to 1 µM	0.001 to 1 µM	0.001 to 1 µM	0.001 to 1 µM
COc1ccc(CN2C(=O)CC(c3ncc(C)o3)=Cc3ccc(-c4cccnc4)cc32)cc1 [Compound 39, 1-(4-methoxybenzyl)-4-(5-methyloxazol-2-yl)-8-(pyridin-3-yl)-1,3-dihydro-2H-benzo[b]azepin-2-one]	0.001 to 1 µM	0.001 to 1 µM	0.001 to 1 µM	0.001 to 1 µM
COc1ccc(CN2C(=O)CC(c3ncc(C)o3)=Cc3ccc(-c4ccncc4)cc32)cc1 [Compound 40, 1-(4-methoxybenzyl)-4-(5-methyloxazol-2-yl)-8-(pyridin-4-yl)-1,3-dihydro-2H-benzo[b]azepin-2-one]	0.001 to 1 µM	0.001 to 1 µM	0.001 to 1 µM	0.001 to 1 µM
Cc1cnc(C2=Cc3ccc(-c4cnn(C5CC5)c4)cc3N(Cc3ccc(C)c(F)c3)C(=O)C2)o1 [Compound 21, 8-(1-Cyclopropyl-1H-pyrazol-4-yl)-1-(3-fluoro-4-methylbenzyl)-4-(5-methyloxazol-2-yl)-1,3-dihydro-2H-benzo[b]azepin-2-one]	0.001 to 1 µM	0.001 to 1 µM	0.001 to 1 µM	0.001 to 1 µM
[2H]C([2H])([2H])Oc1ccc(CN2C(=O)CC(c3ncc(C)o3)=Cc3ccc(-c4cnn(CC(C)(C)O)c4)cc32)cc1 [Compound 100, 8-(1-(2-Hydroxy-2-methylpropyl)-1H-pyrazol-4-yl)-1-(4-(methoxy-d3)benzyl)-4-(5-methyloxazol-2-yl)-1,3-dihydro-2H-benzo[b]azepin-2-one]	0.001 to 1 µM	0.001 to 1 µM	0.001 to 1 µM	0.001 to 1 µM
COc1ccc(CN2C(=O)CC(c3nnc(C)o3)=C(Br)c3ccccc32)cc1 [Compound 9, 5-Bromo-1-(4-methoxybenzyl)-4-(5-methyl-1,3,4-oxadiazol-2-yl)-1,3-dihydro-2H-benzo[b]azepin-2-one]	0.001 to 1 µM	0.001 to 1 µM	0.001 to 1 µM	0.001 to 1 µM
CCOC(C)n1cc(-c2ccc3c(c2)N(Cc2ccc(OC)cc2)C(=O)CC(c2ncc(C)o2)=C3)cn1 (stereo not shown) [Compound 58, 8-(1-(1-Ethoxyethyl)-1H-pyrazol-4-yl)-1-(4-methoxybenzyl)-4-(5-methyloxazol-2-yl)-1,3-dihydro-2H-benzo[b]azepin-2-one]	0.001 to 1 µM	0.001 to 1 µM	0.001 to 1 µM	0.001 to 1 µM
COc1ccc(C(=O)N2CCC(c3ncc(C)o3)=Cc3ccc(-c4cnn(CC(C)(C)O)c4)cc32)cn1 [Compound 105, (8-(1-(2-Hydroxy-2-methylpropyl)-1H-pyrazol-4-yl)-4-(5-methyloxazol-2-yl)-2,3-dihydro-1H-benzo[b]azepin-1-yl)(6-methoxypyridin-3-yl)methanone]	0.001 to 1 µM	0.001 to 1 µM	0.001 to 1 µM	0.001 to 1 µM
COc1ccc(CN2C(=O)CC(c3nc(C)no3)=Cc3ccc(-c4cnn(CC(C)(C)O)c4)cc32)cc1 [Compound 99, 8-(1-(2-Hydroxy-2-methylpropyl)-1H-pyrazol-4-yl)-1-(4-methoxybenzyl)-4-(3-methyl-1,2,4-oxadiazol-5-yl)-1,3-dihydro-2H-benzo[b]azepin-2-one]	0.001 to 1 µM	0.001 to 1 µM	0.001 to 1 µM	0.001 to 1 µM
COc1ccc(CN2C(=O)CC(c3nnc(C)o3)=Cc3ccc(-c4cnn(C)c4)cc32)cc1 [Compound 16, 1-(4-methoxybenzyl)-4-(5-methyl-1,3,4-oxadiazol-2-yl)-8-(1-methyl-1H-pyrazol-4-yl)-1,3-dihydro-2H-benzo[b]azepin-2-one]	0.001 to 1 µM	0.001 to 1 µM	0.001 to 1 µM	0.001 to 1 µM
Cc1cnc(C2=Cc3ccc(Br)cc3N(Cc3ccc(C)c(F)c3)C(=O)C2)o1 [Compound 19, 8-bromo-1-(3-fluoro-4-methylbenzyl)-4-(5-methyloxazol-2-yl)-1,3-dihydro-2H-benzo[b]azepin-2-one]	0.001 to 1 µM	0.001 to 1 µM	0.001 to 1 µM	0.001 to 1 µM
COc1ccc(CN2C(=O)CC(c3ncc(C)o3)=Cc3ccc(-c4cnn(C(C)(C)C(N)=O)c4)cc32)cc1F [Compound 107, 2-(4-(1-(3-fluoro-4-methoxybenzyl)-4-(5-methyloxazol-2-yl)-2-oxo-2,3-dihydro-1H-benzo[b]azepin-8-yl)-1H-pyrazol-1-yl)-2-methylpropanamide]	0.001 to 1 µM	0.001 to 1 µM	0.001 to 1 µM	0.001 to 1 µM
